Experimental findings from ChEMBL document CHEMBL2440110, “Synthesis of azide derivative and discovery of glyoxalase pathway inhibitor against pathogenic bacteria” (Bioorg Med Chem Lett, 2013) are described below.

Values after ≈ are worked out from the molar mass of the structure shown.

Series [1] concerns Burkholderia thailandensis. Briefly: Antibacterial activity against Burkholderia thailandensis. Type of series: functional.
The next series relates to PBMC. Briefly: Cytotoxicity against PBMC (unknown origin) at 0.05 mM after 8 hrs by MTT assay. Type of series: cell-based. Conditions: 50 µM.
The subject of a further series is Staphylococcus aureus. Briefly: Antibacterial activity against Staphylococcus aureus after 24 hrs by Alamar blue assay. Type of series: functional.
In series [2] the test system is Mycolicibacterium smegmatis. The series can be described thus: Antibacterial activity against Mycobacterium smegmatis. Type of series: functional.

Broadly, the MIC90 is an inhibitory concentration at the 90% level, which refers to growth in some studies and to a panel of isolates in others. A lower MIC90 goes with higher susceptibility. Regarding `O=C(O)CNC(=O)C(CS)NC(=O)CCC(NC(=O)OCc1ccccc1)C(=O)O` (stereo unspecified), the MIC90 was determined as 12.5 µg/mL (≈ 28.3 µM) in series [1] and 20 µg/mL (≈ 45.3 µM) in the series on Staphylococcus aureus. In addition, in the series on PBMC, the Activity result is listed as “Non-toxic”.

For the compound `COC(=O)[C@@H](N=[N+]=[N-])[C@@H](OC(=O)CNC(=O)C(CS)NC(=O)CCC(NC(=O)OCc1ccccc1)C(=O)O)C(=O)OC` (stereo partly specified), the MIC90 in series [2] amounted to 6 µg/mL (≈ 9.58 µM); against Staphylococcus aureus, 5 µg/mL (≈ 7.98 µM). Besides, the Activity result in the series with PBMC is given as “Non-toxic”.
